Assays:
Test in all cases: relative viability (nuclei count vs DMSO), 5 days (fraction); higher = more cells survive
[1] = compound: Cn1nnc2c(C(N)=O)ncn2c1=O [Temozolomide] + C[C@]1(O)C[C@@H](c2nc(-c3ccc4ccc(-c5ccccc5)nc4c3)c3c(N)nccn32)C1 [Linsitinib] (partner 1 µM)
Method in brief: (§1)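 Each reported value is a median over duplicate plates. It expresses relative viability: treated-well nuclei count divided by vehicle-well nuclei count. Lung cancer cell lines in 1536-well plates were dosed by pin tool a day after seeding, alone with one drug or with a fixed anchor-drug dose plus five library-drug doses (not always all listed) in √10 steps, and nuclei were counted after 5 days.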

AZD5582 + Luminespib = compound: C[C@@H](C(=O)N[C@@H](C1CCCCC1)C(=O)N2CCC[C@H]2C(=O)N[C@@H]3[C@@H](CC4=CC=CC=C34)OCC#CC#CCO[C@@H]5CC6=CC=CC=C6[C@@H]5NC(=O)[C@@H]7CCCN7C(=O)[C@H](C8CCCCC8)NC(=O)[C@H](C)NC)NC [AZD5582] + CCNC(=O)c1noc(-c2cc(C(C)C)c(O)cc2O)c1-c1ccc(CN2CCOCC2)cc1 [Luminespib] (partner 0.01 µM)
Method in brief: as §1

AZD5582 + Olaparib = compound: C[C@@H](C(=O)N[C@@H](C1CCCCC1)C(=O)N2CCC[C@H]2C(=O)N[C@@H]3[C@@H](CC4=CC=CC=C34)OCC#CC#CCO[C@@H]5CC6=CC=CC=C6[C@@H]5NC(=O)[C@@H]7CCCN7C(=O)[C@H](C8CCCCC8)NC(=O)[C@H](C)NC)NC [AZD5582] + O=C(c1cc(Cc2n[nH]c(=O)c3ccccc23)ccc1F)N1CCN(C(=O)C2CC2)CC1 [Olaparib] (partner 8 µM)
Method in brief: as §1

[2] = compound: Cn1nnc2c(C(N)=O)ncn2c1=O [Temozolomide] + Nc1ncn([C@H]2C[C@H](O)[C@@H](CO)O2)c(=O)n1 [Decitabine] (partner 2 µM)
Method in brief: as §1

Cell Line | relative viability ([1]; first compound 0.2 µM) | relative viability ([1]; first compound 0.6325 µM) | relative viability ([1]; first compound 2 µM) | relative viability ([1]; first compound 6.325 µM) | relative viability ([1]; first compound 20 µM) | relative viability (AZD5582 + Luminespib; first compound 0.001581 µM) | relative viability (AZD5582 + Luminespib; first compound 0.005 µM) | relative viability (AZD5582 + Luminespib; first compound 0.01581 µM) | relative viability (AZD5582 + Luminespib; first compound 0.05 µM) | relative viability (AZD5582 + Olaparib; first compound 0.001581 µM) | relative viability (AZD5582 + Olaparib; first compound 0.005 µM) | relative viability (AZD5582 + Olaparib; first compound 0.01581 µM) | relative viability (AZD5582 + Olaparib; first compound 0.05 µM) | relative viability ([2]; first compound 0.2 µM) | relative viability ([2]; first compound 0.6325 µM) | relative viability ([2]; first compound 2 µM) | relative viability ([2]; first compound 6.325 µM) | relative viability ([2]; first compound 20 µM)
NCI-H2023 | 0.567 | 0.7 | 0.665 | 0.712 | 0.662 | 0.745 | 0.615 | 0.788 | 0.65 | 0.401 | 0.381 | 0.48 | 0.412 | 0.279 | 0.227 | 0.225 | 0.211 | 0.201
NCI-H2085 | 0.865 | 0.919 | 0.788 | 0.994 | 0.84 | 0.435 | 0.478 | 0.439 | 0.493 | 0.842 | 0.903 | 0.726 | 0.733 | 0.63 | 0.599 | 0.587 | 0.589 | 0.471
NCI-H2087 | 1.09 | 0.862 | 1.03 | 0.826 | 0.949 | 0.171 | 0.135 | 0.176 | 0.148 | 0.442 | 0.604 | 0.607 | 0.719 | 0.306 | 0.314 | 0.322 | 0.281 | 0.299
NCI-H2126 | 0.691 | 0.712 | 0.646 | 0.768 | 0.692 | 0.817 | 0.831 | 0.84 | 0.811 | 0.897 | 0.868 | 0.861 | 0.745 | 0.554 | 0.611 | 0.596 | 0.639 | 0.589
NCI-H2347 | 1.08 | 1.11 | 1 | 0.859 | 0.964 | 0.616 | 0.239 | 0.262 | 0.692 | 0.496 | 0.624 | 0.581 | 0.525 | 0.613 | 0.645 | 0.669 | 0.595 | 0.604
NCI-H2405 | 0.707 | 0.924 | 1.09 | 0.858 | 0.95 | 0.892 | 0.924 | 0.733 | 1.08 | 0.83 | 0.875 | 0.833 | 0.842 | 0.773 | 0.779 | 0.863 | 0.699 | 0.673
NCI-H3122 | 0.963 | 1.02 | 1.02 | 0.985 | 0.98 | 0.0928 | 0.0812 | 0.0752 | 0.0956 | 0.634 | 0.557 | 0.641 | 0.537 | 0.438 | 0.484 | 0.611 | 0.478 | 0.378
PC-3 [JPC-3] | 0.932 | 0.975 | 0.941 | 0.987 | 0.499 | 0.628 | 0.67 | 0.638 | 0.557 | 0.914 | 0.855 | 1.09 | 0.536 | 0.787 | 0.854 | 0.886 | 0.762 | 0.498
PC-14 | 0.96 | 0.942 | 0.984 | 0.871 | 0.837 | 0.171 | 0.168 | 0.105 | 0.143 | 0.183 | 0.148 | 0.306 | 0.136 | 0.27 | 0.241 | 0.245 | 0.21 | 0.182
RERF-LC-KJ | 0.928 | 0.888 | 0.948 | 0.982 | 0.868 | – | – | 1.22 | 1.06 | – | – | 0.852 | 0.691 | 0.738 | 0.78 | 0.733 | 0.617 | 0.712
SK-LU-1 | 1.26 | 1.06 | 1.05 | 0.671 | 0.454 | 0.191 | 0.185 | 0.194 | 0.177 | 0.353 | 0.274 | 0.466 | 0.142 | 0.683 | 0.671 | 0.575 | 0.458 | 0.477
SK-MES-1 | 1.14 | 1.09 | 1.07 | 1.13 | 1.05 | 0.773 | 0.925 | 0.683 | 0.956 | 0.653 | 0.515 | 0.792 | 0.605 | 0.417 | 0.391 | 0.362 | 0.335 | 0.368
SW 1573 | 0.74 | 0.738 | 0.737 | 0.579 | 0.659 | 0.19 | 0.248 | 0.478 | 0.285 | 0.376 | 0.523 | 0.628 | 0.684 | 0.589 | 0.535 | 0.577 | 0.456 | 0.462
UMC-11 | 1 | 1.06 | 0.942 | 0.91 | 0.584 | 0.933 | 1.23 | 1.06 | 1.14 | 0.369 | 0.375 | 0.399 | 0.381 | 0.462 | 0.628 | 0.614 | 0.524 | 0.521

Source: the supplement of paper PMC10307832
